For one experiment, the system named is Npr2. Put plainly: Npr2 mRNA expression by qPCR in GH3 cells. Format: cell-based, rat. As to conditions: 100 nM CNP, 24 h; n = 3; Fig. 4a. How it is done: Total RNA was extracted from 1 × 10^6 GH3 cells or from male Sprague Dawley rat pituitaries by using Tri-reagent (Sigma-Aldrich, Poole, UK) and subjected to DNase treatment (Qiagen, Manchester, UK) before generation of first-strand cDNA (Applied Biosystems, Warrington, UK). Polymerase chain reaction (PCR) was performed for a range of targets for 30 cycles by using the primers and conditions published previously (Thompson et al. [2009]). In some instances, GH3 cells were treated with 0 or 100 nM CNP for 24 h prior to RNA extraction. These samples were processed for […] PCR (qPCR) analyses with commercially available rat Npr2 and 18S primer sets (Qiagen, Manchester, UK) under standard SYBR conditions as described previously (Bayol et al. [2010]).
We next examined whether Npr2 or GC-B down-regulation (as determined by a reduction in Npr2 mRNA expression and or GC-B protein expression) mediated the inhibitory effects of sustained CNP exposure. The effect of CNP exposure on the expression of the endogenous Npr2 gene was examined by using qPCR. […]
Fig. 4 CNP fails to alter expression of Npr2 mRNA or GC-B protein in GH3 somatolactotrope cells. a GH3 cells were stimulated with 0 or 100 nM CNP for 24 h prior to extraction of total RNA, cDNA synthesis, and quantitative PCR for endogenous Npr2 expression. […]

In another experiment the target is T1, GC-B (Rattus norvegicus, UniProt P16067).
T1 construct: rapid homologous desensitization of endogenous GC-B receptors in GH3 cells; endogenous in cells; host or cells: GH3 rat somatolactotrope cells
T1 sequence (P16067 17-1047): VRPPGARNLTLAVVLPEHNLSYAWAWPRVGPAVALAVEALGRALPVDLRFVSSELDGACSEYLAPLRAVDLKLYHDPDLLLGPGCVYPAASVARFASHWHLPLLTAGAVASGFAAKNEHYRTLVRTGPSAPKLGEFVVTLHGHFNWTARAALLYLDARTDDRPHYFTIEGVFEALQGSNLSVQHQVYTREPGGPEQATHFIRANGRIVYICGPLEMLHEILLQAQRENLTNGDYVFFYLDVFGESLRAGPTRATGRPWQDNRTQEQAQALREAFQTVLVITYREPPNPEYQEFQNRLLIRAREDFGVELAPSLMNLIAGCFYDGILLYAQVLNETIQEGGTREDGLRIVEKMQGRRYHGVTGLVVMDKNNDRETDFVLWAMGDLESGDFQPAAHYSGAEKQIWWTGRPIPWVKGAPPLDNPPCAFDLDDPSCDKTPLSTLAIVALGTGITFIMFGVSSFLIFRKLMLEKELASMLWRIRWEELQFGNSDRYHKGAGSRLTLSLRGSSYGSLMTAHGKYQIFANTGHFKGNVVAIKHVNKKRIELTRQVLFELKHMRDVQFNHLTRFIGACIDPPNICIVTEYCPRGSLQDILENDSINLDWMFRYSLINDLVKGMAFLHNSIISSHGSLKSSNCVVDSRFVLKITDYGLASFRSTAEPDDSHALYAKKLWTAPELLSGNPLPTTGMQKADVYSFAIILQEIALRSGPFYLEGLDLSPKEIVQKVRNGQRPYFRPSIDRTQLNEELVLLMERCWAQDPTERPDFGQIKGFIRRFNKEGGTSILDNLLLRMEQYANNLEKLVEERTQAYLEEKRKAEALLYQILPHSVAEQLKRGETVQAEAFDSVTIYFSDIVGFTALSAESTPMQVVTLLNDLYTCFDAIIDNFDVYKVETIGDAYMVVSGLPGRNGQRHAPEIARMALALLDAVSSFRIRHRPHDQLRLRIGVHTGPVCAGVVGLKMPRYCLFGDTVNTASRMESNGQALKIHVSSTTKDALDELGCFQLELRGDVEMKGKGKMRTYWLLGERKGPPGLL
Put plainly: Agonist-induced GC-B internalization by confocal immunofluorescence in GH3 cells. Format: cell-based. As to conditions: 100 nM CNP, 0-4 h; n = 3; Fig. 5a-c. How it is done:
GH3 cells were mounted on poly-L-lysine-coated coverslips and treated with either 0 or 100nM ANP or CNP in PSS during the indicated time points. Following treatment, cells were fixed with 4 % (w/v) formaldehyde for 10 min at room temperature and permeabilized with buffer (1 % [v/v] Tween-20 in 50 ml phosphate-buffered saline [PBS]) before incubation for 10 min at room temperature. Cells were then blocked with […] sodium azide dissolved in 92 % PBS, 3 % FCS and 5 % Tween-20 (v/v) for 20 min at room temperature, washed, then exposed to 1:200 diluted primary antibody solution (GC-A or GC-B, plus 0.1 % FCS and 0.1 % Tween-20) for 16 h at 4 °C. […] Following three PBS washes and a final 5-min PBS immersion at room temperature, the slides were mounted in Vectorshield (Vector Laboratories, Peterborough, UK) on standard VWR (VWR International, Leicestershire, UK) slides ready for analysis. A Leica SPS confocal scanning laser microscope was used to capture the staining, which was analyzed with Leica SPS software (Leica Microsystems, Milton Keynes, UK). […]
Fig. 5 Lack of ligand-dependent internalization of GC-B or GC-A in GH3 somatolactotrope cells. […] GC-A and GC-B immunoreactivity was detected by using Alexa488-conjugated secondary antibodies (green), whereas Alexa635-conjugated phalloidin was used to detect the actin cytoskeleton (red). […]

In the case of `CC[C@H](C)[C@@H]1NC(=O)[C@H](CCCNC(=N)N)NC(=O)[C@H](CC(=O)O)NC(=O)[C@H](CC(C)C)NC(=O)[C@H](CCCCN)NC(=O)[C@H](CC(C)C)NC(=O)CNC(=O)[C@H](Cc2ccccc2)NC(=O)[C@@H](NC(=O)CNC(=O)[C@H](CCCCN)NC(=O)[C@H](CO)NC(=O)[C@H](CC(C)C)NC(=O)CN)CSSC[C@@H](C(=O)O)NC(=O)CNC(=O)[C@H](CC(C)C)NC(=O)CNC(=O)[C@H](CO)NC(=O)[C@H](CCSC)NC(=O)[C@H](CO)NC(=O)CNC1=O` [CNP, C-type natriuretic peptide], the “Npr2 mRNA expression” value in the experiment on Npr2 is “failed to alter Npr2 expression in GH3 cells”. For the same molecule, the GC-B internalization result on GC-B was “did not demonstrate any observable GC-B or GC-A internalization”.

The record behind these values is article PMC3921447, “Homologous and heterologous desensitization of guanylyl cyclase-B signaling in GH3 somatolactotropes” (Cell and Tissue Research, 2013).
